This is an account of results in patent EP0450065A1, “ANTIVIRAL AGENT” (priority 1988, dated 1990).

Like-named read-outs stand apart in the source and are kept apart here.

Series [1] deals with herpes simplex virus type 1 (HF strain). Description: Control of CPE (cytopathic effect) manifestation in vero cells. In kind it is cell-based. On the set-up: key to Cytopathic effect [CPE] (3days) Average / Cytopathic effect [CPE] (5days) Average / Cytopathic effect [CPE] (6days) Average: CPE score: 0 none, 0.5 minute spots, 1 = 25%, 2 = 50%, 3 = ≥75% cells; key to Cytopathic effect [CPE] (3days) △CPE / Cytopathic effect [CPE] (5days) △CPE / Cytopathic effect [CPE] (3days) ΔCPE / Cytopathic effect [CPE] (6days) ΔCPE: ΔCPE = difference of average CPE score (0–3 scale) from control. As to conditions: for Cytopathic effect [CPE] (3days) ΔCPE / Cytopathic effect [CPE] (6days) ΔCPE / Cytopathic effect [CPE] (3days) △CPE / Cytopathic effect [CPE] (5days) △CPE: difference from control. The procedure: In vitro antiviral activity of Compound A against herpes simplex virus type 1 (HF strain) Compound A was tested for antiviral effect by the following two methods.
Vero cells cultured and grown in a monolayer on microplates to test for cytopathic effect due to viral infection, with solutions of Compound A diluted to varying ratios and solutions of virus diluted to varying ratios added severally thereto in a volume of 0.1 ml, were cultured under the conditions of 5% CO₂ and 37°C and were examined for CPE manifestation under a microscope. The observation was continued for five to six days.
The degree of CPE brought about by viral infection was rated on the five-point scale, wherein 3 stands for CPE observed on not less than 75% of cultured cells, 2 for CPE observed on 50% of cultured cells, 1 for CPE observed on 25% of cultured cells, 0.5 for occurrence of one to two extremely minute DPE spots, and 0 for perfect absence of recognizable CPE. The CPE scores obtained at the four holes in each microplate were averaged and the difference of the average from the average obtained in the control (omitting the treatment with a chemical) was reported as ΔCPE.
In vitro antiviral effect of Compound A against herpes simplex virus type 1 (HF strain) The test was carried out by following the procedure of Example 3.
A general note: Cytopathic effects are the visible damage that an infection or toxin causes in cultured cells.

Series [2] deals with thymidine kinase [TK(v)] (Human herpesvirus 1, UniProt P0DTH5). As to conditions: viral versus cellular thymidine kinase; cited from earlier work.
For series [3], the system named is vero cells. As to conditions: african green monkey.
Protocol: Compound A and Compound B were severally dissolved in distilled water in a concentration of 5 mg/ml, to prepare master solutions. Each of the master solutions was suitably diluted with an Eagle's MEM culture medium containing 10% fetal bovine serum. A 0.2-ml portion of the resultant dilution product was placed on vero cells cultured in advance on a microplate and grown in a monolayer, cultured further thereon at 37°C for three to five days. Samples taken severally after three days'and five days'culture were placed under a microscope and tested for cytopathogenic effect brought about by a chemical agent.
Series [4] relates to vero cells. As to conditions: control ratio on propagation of vero cells, 72hr.
Protocol: Samples of the control group contained 0.1 ml of a culture solution (an Eagle's MEM culture medium containing 10% fetal bovine serum).
The test was conducted by using three culture tubes per group, culturing the cells in the tubes at 37°C for three days, and taking count of live cells by the dye-exclusion method.
Where [5] appears, read: 100 μg/ml, HSV-1 (HF strain), Example 5.
The mark [6] stands for this setting: 100 μg/ml, HSV-1 (HF), Example 3.
[7] abbreviates: 10 μg/ml, HSV-1 (HF), Example 3.
[8] abbreviates: 20 μg/ml, HSV-1 (HF), Example 3.
The mark [9] stands for this setting: 50 μg/ml, HSV-1 (HF), Example 3.
[10] abbreviates: 200 μg/ml, HSV-1 (HF strain), Example 5.

Sequence of thymidine kinase [TK(v)] (P0DTH5 whole entry): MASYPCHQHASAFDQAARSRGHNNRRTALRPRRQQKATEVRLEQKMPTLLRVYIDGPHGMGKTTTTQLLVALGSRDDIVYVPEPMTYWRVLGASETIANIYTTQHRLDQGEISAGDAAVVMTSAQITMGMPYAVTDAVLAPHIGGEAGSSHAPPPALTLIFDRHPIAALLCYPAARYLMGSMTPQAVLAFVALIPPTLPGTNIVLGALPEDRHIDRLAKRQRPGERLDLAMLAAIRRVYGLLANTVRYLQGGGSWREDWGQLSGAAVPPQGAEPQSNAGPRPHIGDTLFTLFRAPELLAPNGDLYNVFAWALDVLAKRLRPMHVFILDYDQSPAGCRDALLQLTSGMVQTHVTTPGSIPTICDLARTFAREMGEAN

For `Nc1nc2c(ncn2COCCO)c(=O)[nH]1` [ACV, acyclovir, reference compound], in series [1] (setting [5]), the “Cytopathic effect [CPE] (3days) Average” value stood at 0.875, the “Cytopathic effect [CPE] (6days) Average” value is 1.0, the “Cytopathic effect [CPE] (3days) ΔCPE” value is listed as 1.875 and the “Cytopathic effect [CPE] (6days) ΔCPE” value stood at 2.0. Besides, in series [1] (setting [6]), the “Cytopathic effect [CPE] (3days) Average” value came to 0, the “Cytopathic effect [CPE] (5days) Average” value was 0, the “Cytopathic effect [CPE] (3days) △CPE” value is 1.5 and the “Cytopathic effect [CPE] (5days) △CPE” value came to 1.75. Moreover, the “affinity for TK(v) as for TK(c)” value in series [2] was “more than 200 times”.
Consider K₅BW₁₂O₄₀.15H₂O [Compound A], for which the “Cytopathic effect [CPE] (3days) Average” value in series [1] (5 μg/ml, HSV-1 (HF), Example 3) is listed as 1.25; in series [1] (setting [7]), 1.25; in series [1] (setting [8]), 1.25; in series [1] (setting [9]) it was 1.5; in series [1] (setting [5]), 0.125; in series [1] (setting [6]) it was 0.75. In addition, the “Cytopathic effect [CPE] (3days) Average” value in series [1] (setting [10]) was found to be 0. Also, the “Cytopathic effect [CPE] (5days) Average” value in series [1] (5 μg/ml, HSV-1 (HF), Example 3) is given as 1.75; in series [1] (setting [7]) it was 1.25; in series [1] (setting [8]), 1.5; in series [1] (setting [9]) it was 2.0; in series [1] (setting [6]), 1.0. The “Cytopathic effect [CPE] (3days) △CPE” value in series [1] (5 μg/ml, HSV-1 (HF), Example 3) is given as 0.25; in series [1] (setting [7]), 0.25; in series [1] (setting [8]) it was 0.25; in series [1] (setting [9]), 0; in series [1] (setting [6]), 0.375. For the same compound, the “Cytopathic effect [CPE] (5days) △CPE” value amounted to 0 in series [1] (5 μg/ml, HSV-1 (HF), Example 3); 0.5 in series [1] (setting [7]); 0.25 in series [1] (setting [8]); 0.25 in series [1] (setting [9]); 0.75 in series [1] (setting [6]). The entries for the “Cytopathic effect [CPE] (6days) Average” value in series [1] (setting [5]) and in series [1] (setting [10]) were 0.5 and 0, respectively. The “Cytopathic effect [CPE] (3days) ΔCPE” value in series [1] (setting [5]) was 2.625; in series [1] (setting [10]), 2.75. The “Cytopathic effect [CPE] (6days) ΔCPE” value in series [1] (setting [5]) was determined as 2.5; in series [1] (setting [10]) it was 3.0. For the same compound, the “maximum nontoxic doses (MNTD)” value in series [3] was greater than 200 µg/mL. In addition, the “Cellular toxity (3 days) Maximum nontoxic does” value in series [3] (72 h) is greater than 200 µg/mL. In addition, in series [3] (120 h), the “Cellular toxity (5 days) Maximum nontoxic does” value is greater than 200 µg/mL. Besides, the “Ratio (%)” value in series [4] (100 μg/ml) and in series [4] (200 μg/ml) was “absolutely no effect” throughout.
